Values quoted from earlier work as cited in patent publication US9242010B2, “Living copolymer-protein/peptide hybrids for biomedical applications” (Research Foundation of The City University of New York, priority 2008, dated 2016).
Values belong to the compound of their own block, whether it stands above or below them.

Assays:
[1] = background statement
avidin/streptavidin = conditions: interaction of avidin/streptavidin with biotin

water and plasma solubility [1]: poor
Compound: COc1cc(/C=C/C(=O)CC(=O)/C=C/c2ccc(O)c(OC)c2)ccc1O [curcumin, (1E,6E)-1,7-bis(4-hydroxy-3-methoxyphenyl)hepta-1,6-diene 3,5-dione]

water solubility [1]: not water soluble
Compound: CC(=O)O[C@H]1C(=O)[C@@]2(C)[C@H]([C@H](OC(=O)c3ccccc3)[C@]3(O)C[C@H](OC(=O)[C@H](O)[C@@H](NC(=O)c4ccccc4)c4ccccc4)C(C)=C1C3(C)C)[C@]1(OC(C)=O)CO[C@@H]1C[C@@H]2O [taxol]

Compound: O=C(O)CCCC[C@@H]1SC[C@@H]2NC(=O)N[C@@H]21 [biotin]
Ka (avidin/streptavidin): > 10^14
